“Also recorded” adds a separate entry of the source. Bridge positions count the residues as written; N and C are the ends. Square brackets hold non-standard residues; d marks the D form. Peptide text beside a SMILES is read from it. * marks the point of attachment. X1 = O=C(O)CN1CCN(CC(=O)O)CCN(C(CCC(=O)NCc2ccc(CN*)cc2)C(=O)O)CC1; NODAGA = O=C(O)CN1CCN(CC(=O)O)CCN(C(CCC(=O)*)C(=O)O)CC1; Tyr(3-Cl) = N[C@@H](Cc1ccc(O)c(Cl)c1)C(=O)O; X3 = NCCN(CCN)CCC(=O)NCc1ccc(CN*)cc1; Hyp = O=C(O)[C@@H]1C[C@@H](O)CN1; X2 = NCCN(CCN)CCC(=O)*
Key:
[1] = tested on: thrombus (mural carotid artery thrombosis); assay: PET / SPECT imaging in rat carotid crush injury model; assay type: in vivo
[2] = molecular target: soluble fibrin fragment DD(E) (Homo sapiens, UniProt P02671+P02675+P02679, DEL433-453); assay type: binding; details: DD(E) assay
125I-labeled thrombus = assay: Triple-isotope SPECT/PET/CT imaging with 125I-labeled thrombus; assay type: in vivo, rat; details: ferric chloride model
immobilized fibrin = molecular target: T1, immobilized fibrin (Homo sapiens, UniProt P02671+P02675+P02679); assay: Functional fibrin-binding assay: blood plasma incubated with immobilized fibrin; details: blood samples collected after injection
T1 sequence (P02671 36-629 limits assumed): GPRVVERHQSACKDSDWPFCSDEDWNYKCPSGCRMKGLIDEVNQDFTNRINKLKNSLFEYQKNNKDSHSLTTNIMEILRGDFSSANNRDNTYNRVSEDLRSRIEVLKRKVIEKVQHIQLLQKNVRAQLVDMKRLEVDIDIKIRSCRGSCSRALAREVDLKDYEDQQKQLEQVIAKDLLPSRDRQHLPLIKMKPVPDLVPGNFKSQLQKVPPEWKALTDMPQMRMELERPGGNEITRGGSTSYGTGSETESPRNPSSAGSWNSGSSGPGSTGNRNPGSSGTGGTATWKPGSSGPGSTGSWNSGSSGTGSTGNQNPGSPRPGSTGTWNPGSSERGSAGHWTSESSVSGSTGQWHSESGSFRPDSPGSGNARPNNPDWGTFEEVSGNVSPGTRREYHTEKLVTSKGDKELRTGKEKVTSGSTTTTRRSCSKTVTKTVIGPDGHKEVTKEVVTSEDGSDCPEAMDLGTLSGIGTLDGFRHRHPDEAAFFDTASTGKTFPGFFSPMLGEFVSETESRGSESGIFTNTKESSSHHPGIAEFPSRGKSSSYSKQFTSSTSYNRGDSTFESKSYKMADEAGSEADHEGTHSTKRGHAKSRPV
T1 sequence (P02675 45-491 limits assumed): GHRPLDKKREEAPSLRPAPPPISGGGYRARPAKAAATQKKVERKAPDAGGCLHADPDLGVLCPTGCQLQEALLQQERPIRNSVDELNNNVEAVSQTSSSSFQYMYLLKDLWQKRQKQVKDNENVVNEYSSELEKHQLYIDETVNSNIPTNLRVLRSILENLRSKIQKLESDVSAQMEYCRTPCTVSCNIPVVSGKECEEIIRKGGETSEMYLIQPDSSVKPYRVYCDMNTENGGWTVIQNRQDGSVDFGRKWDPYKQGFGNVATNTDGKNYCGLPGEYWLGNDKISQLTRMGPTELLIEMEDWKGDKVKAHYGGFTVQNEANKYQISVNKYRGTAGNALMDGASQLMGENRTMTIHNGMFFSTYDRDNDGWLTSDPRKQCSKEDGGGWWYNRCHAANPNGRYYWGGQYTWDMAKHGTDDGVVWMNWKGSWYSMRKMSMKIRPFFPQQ
T1 sequence (P02679 27-437 isoform P02679-2 limits assumed): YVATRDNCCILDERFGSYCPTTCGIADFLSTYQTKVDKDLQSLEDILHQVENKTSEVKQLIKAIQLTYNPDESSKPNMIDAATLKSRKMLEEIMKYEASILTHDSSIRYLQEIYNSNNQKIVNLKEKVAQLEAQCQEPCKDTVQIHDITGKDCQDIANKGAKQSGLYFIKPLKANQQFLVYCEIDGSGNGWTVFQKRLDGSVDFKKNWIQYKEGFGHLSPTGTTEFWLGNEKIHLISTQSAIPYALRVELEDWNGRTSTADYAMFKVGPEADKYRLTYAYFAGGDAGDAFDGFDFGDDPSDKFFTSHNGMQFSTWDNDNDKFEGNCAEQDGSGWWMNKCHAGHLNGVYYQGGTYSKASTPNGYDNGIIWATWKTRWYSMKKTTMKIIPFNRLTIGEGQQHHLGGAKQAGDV

[3] = Blood clearance / pharmacokinetics from serial blood samples
[4] = tested on: thrombus (mural carotid artery thrombosis); assay: Ex vivo biodistribution; details: crush model, biodistribution at 120 minutes

SMILES: CC[C@H](C)[C@H](NC(=O)[C@H](Cc1c[nH]cn1)NC(=O)[C@@H]1CSSC[C@@H](NC(=O)[C@H](Cc2c[nH]cn2)NC(=O)[C@H](Cc2ccccc2)NC(=O)CCC(C(=O)O)N2CCN(CC(=O)O)CCN(CC(=O)O)CC2)C(=O)N2C[C@H](O)C[C@H]2C(=O)N[C@@H](Cc2ccc(O)c(Cl)c2)C(=O)N[C@@H](CC(=O)O)C(=O)N[C@@H](CC(C)C)C(=O)N1)C(=O)N[C@@H](CC(C)C)C(=O)NCc1ccc(CNC(=O)CCC(C(=O)O)N2CCN(CC(=O)O)CCN(CC(=O)O)CC2)cc1 (stereo partly drawn) [^64Cu-D-Cys-FBP8, metal not drawn] ({NODAGA}-FH[dC][Hyp][Tyr(3-Cl)]DLCHIL-X1; disulfide 3-8)
- thrombus detection on PET / SPECT images [1]: no uptake in the thrombus
- displacement of the fluorescent probe [2]: no displacement
- localization to 125I-labeled thrombus (SPECT/PET) (125I-labeled thrombus): did not reveal significant uptake at the target site
- fibrin binding of blood samples (plasma incubated with immobilized fibrin) (immobilized fibrin): does not bind to fibrin; also recorded: significantly lower binding

SMILES: CC[C@H](C)[C@H](NC(=O)[C@H](Cc1c[nH]cn1)NC(=O)[C@@H]1CSSC[C@H](NC(=O)[C@H](Cc2c[nH]cn2)NC(=O)[C@H](Cc2ccccc2)NC(=O)CCN(CCN)CCN)C(=O)N2C[C@H](O)C[C@H]2C(=O)N[C@@H](Cc2ccc(O)c(Cl)c2)C(=O)N[C@@H](CC(=O)O)C(=O)N[C@@H](CC(C)C)C(=O)N1)C(=O)N[C@@H](CC(C)C)C(=O)NCc1ccc(CNC(=O)CCN(CCN)CCN)cc1 [^99mTc-FBP16, metal not drawn] (X2-FHC[Hyp][Tyr(3-Cl)]DLCHIL-X3; disulfide 3-8)
- half-life ([3]; male, Sprague-Dawley, rat, in vivo, iv): 5.9 ± 16.2 min
- clearance of radioactivity from blood ([3]; serial blood draws 0 to 120 minutes p.i.): residual radioactivity persisting in the blood even after 120 minutes
- thrombus uptake [4]: low target uptake
- thrombus detection on PET / SPECT images [1]: ineffective
